Numbers after ± are expanded uncertainties.
Conditions: Liquid; for Critical pressure: Direct measurement; for Normal boiling temperature: Ebulliometric method (Recirculating still); for Critical temperature: Visual observation in a stirred cell

Compound | Critical pressure [kPa] | Normal boiling temperature [°C] | Critical temperature [K]
Cc1ccc2ccccc2c1 [2-methylnaphthalene] | 3300 ± 200 | 241.1 ± 0.2 | 755 ± 16
Cc1cc(C)c2ccccc2c1 [1,3-dimethylnaphthalene] | 2740 ± 160 | 265.1 ± 0.2 | 772 ± 16
Cc1ccc(C)c2ccccc12 [1,4-dimethylnaphthalene] | 2790 ± 160 | 265.1 ± 0.2 | 778 ± 16
Cc1cccc2ccccc12 [1-methylnaphthalene] | 3540 ± 220 | 244.6 ± 0.2 | 773 ± 16
CCc1ccc2ccccc2c1 [2-ethylnaphthalene] | 2790 ± 160 | 254.1 ± 0.2 | 763 ± 16

Reference: the NIST ThermoML archive (doi:10.1016/j.fluid.2013.08.041)
